Measurements published in patent US4647685A, “2-alkoxy-1-((2-trialkylaminoethoxy)phosphinyloxy)-alkenes and alkynes, hydroxy inner salts” (Eli Lilly and Company, priority 1985, dated 1987).
Structures can show the parent of a compound that is named as a salt.

How the values were obtained:
CCRF-CEM cell line = assay: Inhibition of growth of human leukemic cells (CCRF-CEM Cytotoxicity Screen); type: cell-based; conditions: in vitro, read-out: IC50 (concentration giving 50% growth inhibition)
[1] = test system: X-5563 (multiple myeloma); assay: Activity against X-5563 (multiple myeloma) tumor maintained in C3H mice; type: in vivo; conditions: I.P. daily for 10 days, tumors measured days 10 to 12
Procedure: (§1) The following protocol was employed. The tumor was removed from passage animals and minced into 1 to 3 mm square fragments using sterile techniques. Tumor pieces were checked for sterility using both Antibiotic Medium 1 and Brain Heart Infusion (Difco; Detroit, MI). Recipient mice were shaved and tumor pieces were implanted subcutaneously in the axillary region by trocar. Drug therapy on the appropriate schedule was initiated on the day after tumor implant. The compound was dissolved in saline for all experiments. All animals were weighed at the beginning and end of drug treatment. Food and water were provided ad libitum. Each test group contains 5 animals. On days 10 to 12, two dimensional measurements (width and length) of all tumors were taken using vernier calipers. Tumor weights were calculated from these measurements using the following formula:
Tumor Weight (mg)=Tumor Length (mm) X Tumor Width (mm)^2 /2
(§2) For all data, the tumor weight was rounded to the nearest tenth of a gram for analysis. No group is included in the analysis for therapeutic activity in which deaths attributable to drug toxicity exceeded 30 percent of the treated group.
(§3) In Table 2 which follows, column 1 gives the name of the compound; column 2, the dose level; column 3, the percent inhibition of the tumor; and column 4, the toxic deaths. Drug and control doasges were administered I.P. daily for 10 days.

[2] = Toxic deaths in the X-5563 (multiple myeloma) tumor test; type: in vivo, C3H mice; conditions: I.P. daily for 10 days
Procedure: as §1, with “formula: […]” for “formula:”
as §2, §3

Row | SMILES | IC50 (CCRF-CEM cell line) [µg/mL] | Percent Inhibition of Tumor ([1]; 50 mg/kg) [%] | Toxic Deaths ([2]; 50 mg/kg) | Percent Inhibition of Tumor ([1]; 70 mg/kg) [%] | Toxic Deaths ([2]; 70 mg/kg)
1 | CCCCCCCC/C=C\CCCCCCCC(COP(=O)([O-])OCC[N+](C)(C)C)OCC (racemic) [(Z)-(±)-2-ethoxy-1-[(2-trimethylaminoethoxy)phosphinyloxy]-10-nonadecene, hydroxy inner salt] | 1.6 | 47 | 1/10 | – | –
2 | CCCCC/C=C\C/C=C\CCCCCCCC(COP(=O)([O-])OCC[N+](C)(C)C)OCC (racemic) [(Z,Z)-(±)-2-Ethoxy-1-[(2-trimethylaminoethoxy)phosphinyloxy]-10,13 nonadecadiene, hydroxy inner salt] | 6 | – | – | 31 | 2/10
3 | CCCCC/C=C\C/C=C\CCCCCCCC(COP(=O)([O-])OCC[N+](C)(C)C)OC (racemic) [(Z,Z)-(±)-2-Methoxy-1-[(2-trimethylaminoethoxy)phosphinyloxy]-10,13-nonadecadiene, hydroxy inner salt] | 4.2 | – | – | – | –
